Key:
[1] = Food intake test (food-deprived rats); type: in vivo, Male Sprague-Dawley derived rats
Procedure: (§1) Male Sprague-Dawley derived rats, Charles River Breeders (Portage, MI), weighing between 200-400 grams at the time of testing, were employed in the food intake studies and water intake studies. The rats were housed individually and kept on a 12 hour light-dark light cycle. The room temperature ranged between 23°-25° C.
The rats employed in food intake testing were food deprived on the day preceding testing and were divided into experimental groups that were matched on the basis of average daily food intake and body weight. At approximately 24 hours post-deprivation, the rats were administered a test sample containing as the active ingredient a compound of the present invention. All test samples employed herein were prepared and homogenized in a vehicle of normal saline (to which a few drops of PG/Tween 80 was added). The test samples were administered at an injection volume of 2 ml./kg, unless otherwise stated. Thirty minutes following administration of the test samples, pre-weighed food jars, containing ground meal, were placed in the rats' cages. (Prior to testing the rats were given ground meal for a minimum of 3 days to familiarize the rats with this food.) After 1, 2 and 6 hours of food access, the jars were removed, weighed and returned to the rats' cages providing a 1, 2 and 6 hour intake measurement. The results obtained are represented in Table I. A student t test was used for making statistical comparisons, and the p-values are based upon two-tailed comparisons. The compound employed as the active ingredient of the test sample is indicated by the example number which describes its preparation.

[2] = Water intake test (water-deprived rats); type: in vivo, Male Sprague-Dawley derived rats; conditions: for Water Intake as a % of Control, 15 m: 15 minutes; for Water Intake as a % of Control, 30 m: 30 minutes; for Water Intake as a % of Control, 45 m: 45 minutes; for Water Intake as a % of Control, 60 m: 60 minutes; for Water Intake as a % of Control, 120 m: 120 minutes
Procedure: as §1
The rats employed in water intake testing were water deprived for 1 day and then maintained on a restricted water schedule. Water was available for two hours on the first day post water deprivation and for 1 hour each day afterwards for a minimum of 1 week. Using drinking tubes (50 ml. graduated cylinders), water intake was measured for at least 3 consecutive days prior to testing. On the day preceding testing, rats were divided into different experimental groups that were matched on the basis of avg. 0-15 min. water intake and body weight. On the day of testing, a test sample, containing as the active ingredient the compound prepared in Example 2, was administered. […] Food was removed from the animal at the start of the drinking test. A student t test was used for making statistical comparisons, and the p-values are based upon two-tailed comparisons.

[3] = 32.0 mg/kg i.g., injection volume 3.0 ml./kg
[4] = 75.0 mg/kg i.g., injection volume 3.0 ml./kg

## O=c1c(-c2ccc(Cl)cc2)c2c(cn1CO)Sc1ccccc1N2 [Example 1, 4-(4-chlorophenyl)-2-(hydroxymethyl)-5H-pyrido[3,4-b][1,4]benzothiazin-3(2H)-one]
[1]; 10.0 mg/kg i.g.
  Food Intake % of control, 1 Hr.: 109.8 % of control
  Food Intake % of control, 2 Hr.: 104.5 % of control
  Food Intake % of control, 6 Hr.: 92.1 % of control
[1]; 32.0 mg/kg i.g.
  Food Intake % of control, 1 Hr.: 90.2 % of control
  Food Intake % of control, 2 Hr.: 86.6 % of control
  Food Intake % of control, 6 Hr.: 86.5 % of control
[1]
  oral appetite suppressant activity: possess oral appetite suppressant activity

## CCCC(=O)OCn1cc2c(c(-c3ccc(Cl)cc3)c1=O)Nc1ccccc1S2 [Example 2, 4-(4-chlorophenyl)-2-[(1-oxobutoxy)methyl]-5H-pyrido[3,4-b][1,4]benzothiazin-3-(2H)-one]
[1]; 1.0 mg/kg i.p.
  Food Intake % of control, 1 Hr.: 87.9 % of control
  Food Intake % of control, 2 Hr.: 90.9 % of control
  Food Intake % of control, 6 Hr.: 100.0 % of control
[1]; 3.2 mg/kg i.p.
  Food Intake % of control, 1 Hr.: 57.6 % of control
  Food Intake % of control, 2 Hr.: 76.6 % of control
  Food Intake % of control, 6 Hr.: 91.0 % of control
[1]; 10.0 mg/kg i.g.
  Food Intake % of control, 1 Hr.: 85.7 % of control
  Food Intake % of control, 2 Hr.: 93.6 % of control
  Food Intake % of control, 6 Hr.: 92.5 % of control
[1]; 10.0 mg/kg i.p.
  Food Intake % of control, 1 Hr.: 39.4 % of control
  Food Intake % of control, 2 Hr.: 61.0 % of control
  Food Intake % of control, 6 Hr.: 88.1 % of control
[1]; 32.0 mg/kg i.g.
  Food Intake % of control, 1 Hr.: 57.1 % of control
  Food Intake % of control, 2 Hr.: 74.4 % of control
  Food Intake % of control, 6 Hr.: 87.9 % of control
[1]; 32.0 mg/kg i.p.
  Food Intake % of control, 1 Hr.: 30.3 % of control
  Food Intake % of control, 2 Hr.: 40.3 % of control
  Food Intake % of control, 6 Hr.: 70.3 % of control
[1]
  oral appetite suppressant activity: possess oral appetite suppressant activity
[2]; 10.0 mg/kg i.g.
  Water Intake as a % of Control, 15 m: 96.4 % of Control
  Water Intake as a % of Control, 30 m: 98.3 % of Control
  Water Intake as a % of Control, 45 m: 99.2 % of Control
  Water Intake as a % of Control, 60 m: 100.0 % of Control
  Water Intake as a % of Control, 120 m: 103.7 % of Control
[2]; 18.0 mg/kg i.g.
  Water Intake as a % of Control, 15 m: 89.2 % of Control
  Water Intake as a % of Control, 30 m: 89.1 % of Control
  Water Intake as a % of Control, 45 m: 88.6 % of Control
  Water Intake as a % of Control, 60 m: 92.0 % of Control
  Water Intake as a % of Control, 120 m: 94.8 % of Control
[2]; 32.0 mg/kg i.g.
  Water Intake as a % of Control, 15 m: 64.9 % of Control
  Water Intake as a % of Control, 30 m: 69.7 % of Control
  Water Intake as a % of Control, 45 m: 70.7 % of Control
  Water Intake as a % of Control, 60 m: 75.2 % of Control
  Water Intake as a % of Control, 120 m: 79.3 % of Control

## CCCCC(=O)OCn1cc2c(c(-c3ccc(Cl)cc3)c1=O)Nc1ccccc1S2 [Example 3, 4-(4-chlorophenyl)-2-[(1-oxopentoxy)methyl]-5H-pyrido[3,4-b][1,4]benzothiazin-3(2H)-one]
[1]; [3]
  Food Intake % of control, 1 Hr.: 83.3 % of control
  Food Intake % of control, 2 Hr.: 100.0 % of control
  Food Intake % of control, 6 Hr.: 111.5 % of control
[1]; [4]
  Food Intake % of control, 1 Hr.: 68.5 % of control
  Food Intake % of control, 2 Hr.: 96.8 % of control
  Food Intake % of control, 6 Hr.: 102.6 % of control
[1]
  oral appetite suppressant activity: possess oral appetite suppressant activity

## O=c1c(-c2ccc(Cl)cc2)c2c(cn1CO)Sc1ccc(Cl)cc1N2 [Example 5, 7-chloro-4-(4-chlorophenyl)-2-(hydroxymethyl)-5H-pyrido[3,4-b][1,4]benzothiazin-3(2H)-one]
[1]; 75.0 mg/kg i.g.
  Food Intake % of control, 1 Hr.: 89.9 % of control
  Food Intake % of control, 2 Hr.: 96.1 % of control
  Food Intake % of control, 6 Hr.: 83.1 % of control

## CC(C)(C)C(=O)OCn1cc2c(c(-c3ccc(Cl)cc3)c1=O)Nc1ccccc1S2 [Example 9, 4-(4-chlorophenyl)-2-[(2,2-dimethyl-1-oxopropoxy)methyl]-5H-pyrido[3,4-b][1,4]benzothiazin-3(2H)-one]
[1]; 10.0 mg/kg i.g.
  Food Intake % of control, 1 Hr.: 111.1 % of control
  Food Intake % of control, 2 Hr.: 102.6 % of control
  Food Intake % of control, 6 Hr.: 96.3 % of control
[1]; 32.0 mg/kg i.g.
  Food Intake % of control, 1 Hr.: 111.1 % of control
  Food Intake % of control, 2 Hr.: 106.4 % of control
  Food Intake % of control, 6 Hr.: 92.5 % of control
